Test results taken from patent publication US20260183209A1, “USE OF SANDALORE FOR IMPROVING THE STRUCTURE OF HAIR” (WELLA GERMANY GMBH, priority 2022, published 2026).

Assays:
[1] = system: hair follicles of ex vivo human scalp skin culture; assay: Cross-section / hair shaft diameter in ex vivo human scalp skin culture; format: cell-based
Experimental: (§1) The “cross-section” or “diameter” of hair is determined by the microscopic sectioned, newly formed hair shaft diameter in the keratogenous region (in a distance of around 200-350 μm from the ‘germative matrix’). In an ex vivo human scalp skin culture and treatment, 6 mm skin punches (hairy skin from a healthy donor) were made following the hair growth orientation and maintained in normoxic (37° C., 5% CO2) condition. After 24 h resting (and then keeping) the culture in an Air-Liquid Interphase, two topical treatment were performed (day 1 and 3). Punches were embedded in an optimal cutting temperature compound after 5 days of ex vivo culture and cryosectioned (7 μm sections). The average value is calculated from 5 independent measurements for each hair follicle (HF).
In an ex vivo human scalp skin culture, punches (hairy skin from a human donors) were twice (day 1 and 3) treated topically, and analysed via crysectioning after 5 days. The average value for each hair follicle (HF) is calculated from 5 independent measurements, and the following table indicates the mean of all average values over the total number of hair follices (#HFs) measured.

keratin 85 (KRT85) = assay: Keratin 85 expression, fluorescence intensity in the precortical hair matrix of ex vivo human scalp skin sections; format: cell-based
Experimental: as §1
Expression of keratin 85 (KRT85) is set by fluorescence intensity in the precortical hair matrix with a fluorescence microscope at 20× magnification. Skin sections were co-stained o.n. at 4° C. with a guinea pig anti-KRT85 antibody (Progen, 1:200) followed by DAPI (IUPAC: 4′,6-Diamidino-2-phenylindol) counterstain to visualize the nuclei. The mean KRT85 expression value was calculated from all hair follicles with Image J software within each donor, and fold changes values versus vehicle group were determined.

[2] = target: T1, olfactory receptor OR2AT4 (Homo sapiens, UniProt A6NND4); conditions: receptor expressed in the epithelium of human hair follicles; cited from earlier work
T1 sequence (A6NND4 1-320): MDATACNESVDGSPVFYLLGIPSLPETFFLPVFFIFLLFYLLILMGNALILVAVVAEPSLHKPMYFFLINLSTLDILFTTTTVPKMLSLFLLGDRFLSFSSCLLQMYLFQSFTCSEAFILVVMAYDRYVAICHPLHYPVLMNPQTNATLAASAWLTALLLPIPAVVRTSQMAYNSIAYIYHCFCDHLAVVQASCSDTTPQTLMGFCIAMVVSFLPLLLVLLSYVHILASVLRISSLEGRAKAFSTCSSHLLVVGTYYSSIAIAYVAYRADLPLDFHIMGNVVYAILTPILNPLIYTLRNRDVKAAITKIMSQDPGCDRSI

CC1=CCC(CCC(C)C(C)O)C1(C)C (centres unmarked) [Sandalore, 3-methyl-5-(2,2,3-trimethylcyclopent-3-en-1-yl) pentan-2-ol]
effect on hair shaft diameter as compared to vehicle ([1]; ex vivo human scalp skin culture, vs vehicle): increases the hair shaft diameter significantly
hair shaft diameter ([1]; ex vivo human scalp skin punches, topical treatment day 1 and 3, cryosectioned after 5 days, mean over all hair follicles): 51.1 μm
KRT85 expression, change vs vehicle group (keratin 85 (KRT85); fluorescence intensity, anti-KRT85 antibody staining, precortical hair matrix, mean over hair follicles): 1.347 fold
KRT85 expression, comparison in words (keratin 85 (KRT85); fold change values, vs vehicle group or vs Sandalore alone): significantly higher
effect on olfactory receptor OR2AT4 [2]: stimulatory effect
